This is an account of results in US20230293526A1, “METHOD FOR TREATING CANCER WITH A REVERSE TRANSCRIPTASE INHIBITOR” (PrimeFour Therapeutics, Inc., priority 2020, published 2023).

Where only a bound is given, the exact number is not on record here.

The IC50 is the concentration at which inhibition is half-maximal.

The first experiment has as its system human LINE-1. The experiment can be described thus: Human LINE-1 (L1) retrotransposition dual-luciferase reporter assay in HeLa cells. Particulars: 72 hours, read-out: Human LINE-1 IC50 (Human L1 activity inhibition). In kind it is cell-based. The procedure:
Representative compounds were tested for inhibition of retrotransposition activity of human LINE-1 (L1) retrotransposition reporter assay in HeLa cells according to the following procedure.
Human Cervical Adenocarcinoma Cells (HeLa) were cultured in Dulbecco's Modified Eagle's Medium (DMEM) containing 4500 mg/L glucose, L-glutamine, sodium pyruvate and sodium bicarbonate, supplemented with 10% of heat inactivated fetal bovine serum (FBS). Cells were grown at 37° C. in an atmosphere of 5% CO2. The dual luciferase-encoding plasmid pYX017 was provided by Prof Wenfeng An (Xie, et al., 2011, Nucleic Acids Res).
The reporter assay was performed in 96-well white, optical bottom plates (Thermo Fisher, 165306). 24 hours prior to transfection, HeLa cells were seeded in a density of 2,500 cells per well, in 50 μL of DMEM, 10% FBS media volume. Cells were incubated at 37° C. in an atmosphere of 5% CO2. Seeding was optimized to achieve approximately 30% cell confluency on the day of transfection. A transfection mix was prepared by combining transfection reagent FuGENE® HD (Promega, E2311) and plasmid DNA (100 ng per well) in a 3:1 ratio, in OpiMEM media (Thermo Fisher, 31985062). Next, 5 μL of the transfection mix was combined with 20 μL of DMEM, 10% FBS media, and 25 μL of this mix was added into each well of an assay plate. In each assay plate one column remained untransfected to serve as a blank luminescence signal.
Serial dilution of test compounds was performed in DMSO and transferred to medium. Next, 25 μL of media-diluted compounds series were transferred to an assay plate containing cells and transfection media. The final concentration of DMSO in treated wells was 0.2%. Serial dilutions of compounds were added to an assay plate immediately after transfection. Compounds were tested in triplicates. The assay plate was then incubated with transfection reagent and compounds at 37° C. in an atmosphere of 5% CO2 for 72 hours.
Luciferase reporter activity was quantified with the Dual-Luciferase® Reporter Assay System (Promega) following the manufacturer's manual, with a passive lysis buffer volume increased to 30 μL and lysis incubation time increased to 20 min at room temperature with gentle shaking, to ensure complete cell lysis. Luminescence was measured using a SpectraMax i3×Multi-Mode Microplate Reader, with integration times of 100 ms and 10 ms applied to measure FLuc and RLuc signals, respectively. Relative LNE-1 activity was calculated as Firefly signal/Renilla signal*10,000. In order to determine IC50 values for each compound, dose response data were fit to a logistic using non-linear regression.
Background: Reporter assays use an easily measured gene product as a stand-in for the process of interest.
On to `C[C@H](Cn1cnc2c(N)ncnc21)OCP(=O)(O)O` [Tenofovir, reference compound], for which the half-inhibitory concentration (IC50) amounted to 2700 nM.

Consider `C#C[C@]1(CO)O[C@@H](n2cnc3c(N)nc(N)nc32)C[C@@H]1O` [compound 12], for which the concentration for half-maximal inhibition (IC50) came to 6.2 nM.

For the molecule `C#C[C@]1(CO)O[C@@H](n2cnc3c(N)nc(N)nc32)C[C@@H]1O` [compound 22], the concentration for half-maximal inhibition (IC50) came out at 23400 nM.

In the case of `CC[C@]1(CO)O[C@@H](n2cnc3c(N)nc(N)nc32)C[C@@H]1O` [compound 27], the half-inhibitory concentration (IC50) was found to be 2.6 nM.

The experiment is the same for the next values; noted with them: Homo sapiens, 72 hours, read-out: Human LINE-1 IC50 (Human L1 activity inhibition).
For `CC(C)OC(=O)[C@H](C)N[P@](=O)(CO[C@H](C)Cn1cnc2c(N)ncnc21)Oc1ccccc1` [Tenofovir Alafenamide (TAF), Tenofovir Alafenamide, reference compound], the concentration for half-maximal inhibition (IC50) stood at 10 nM.

Still in this experiment, the particulars now being: Homo sapiens, HeLa, 72 h, read-out: Human LINE-1 IC50 (Human L1 activity inhibition).
As to `Cc1cn([C@H]2C[C@H](N=[N+]=[N-])[C@@H](CO)O2)c(=O)[nH]c1=O` [AZT, zidovudine, reference compound], the IC50 came to 630 nM.

Consider `Nc1ncnc2c1ncn2CCOCP(=O)(O)O` [Adefovir, reference compound], for which the IC50 is > 6250 nM.

Consider `Nc1ccn([C@H]2CO[C@@H](CO)S2)c(=O)n1` [Apricitabine, reference compound], for which the IC50 amounted to 6340 nM.

On to `C#C[C@@]1(CO)C=C[C@H](n2cc(C)c(=O)[nH]c2=O)O1` [Censavudine, reference compound], for which the IC50 was 70 nM.

Consider `O=c1[nH]cnc2c1ncn2[C@H]1CC[C@@H](CO)O1` [Didanosine, reference compound], for which the IC50 is 530 nM.

Take `O=C1Nc2ccc(Cl)cc2[C@@](C#CC2CC2)(C(F)(F)F)O1` [Efavirenz, reference compound]: the half-maximal inhibitory concentration (IC50) was > 50000 nM.

`Nc1nc(=O)n([C@@H]2CS[C@H](CO)O2)cc1F` [Emtricitabine (FTC), Emtricitabine, reference compound]: the IC50 turned out to be 480 nM.

Consider `C=C1[C@H](CO)[C@@H](O)C[C@@H]1n1cnc2c(=O)[nH]c(N)nc21` [Entecavir, reference compound], for which the IC50 was 1450 nM.

For `Nc1ccn([C@@H]2CS[C@H](CO)O2)c(=O)n1` [Lamivudine, reference compound], the concentration for half-maximal inhibition (IC50) was 660 nM.

Take `Cc1ccnc2c1NC(=O)c1cccnc1N2C1CC1` [Nevirapine, reference compound]: the half-inhibitory concentration (IC50) is > 50000 nM.

Take `Cc1cn([C@H]2C=C[C@@H](CO)O2)c(=O)[nH]c1=O` [Stavudine, reference compound]: the IC50 is 750 nM.

Regarding `CC(C)OC(=O)OCOP(=O)(CO[C@H](C)Cn1cnc2c(N)ncnc21)OCOC(=O)OC(C)C` [Tenofovir Disoproxil, reference compound], the IC50 was determined as 190 nM.

For the molecule `Nc1ccn([C@H]2CC[C@@H](CO)O2)c(=O)n1` [Zalcitabine, reference compound], the IC50 amounted to 66 nM.

Regarding `C#C[C@]1(CO)O[C@@H](n2cc(C)c(=O)[nH]c2=O)C[C@@H]1O` [compound 2], the IC50 was determined as 390 nM.

With `C#C[C@]1(CO)O[C@@H](n2cc(Br)c(=O)[nH]c2=O)C[C@@H]1O` [compound 4], the IC50 was 490 nM.

For `C#C[C@]1(CO)O[C@@H](n2cc(C)c(N)nc2=O)C[C@@H]1O` [compound 6], the half-inhibitory concentration (IC50) amounted to 18600 nM.

Turning to `CC#C[C@]1(CO)C=C[C@H](n2cc(C)c(=O)[nH]c2=O)O1` [compound 16], the concentration for half-maximal inhibition (IC50) is > 25000 nM.

On to `C#C[C@@]1(CO)C=C[C@H](n2cc(Br)c(=O)[nH]c2=O)O1` [compound 17], for which the IC50 was 910 nM.

Take `C=C[C@@]1(CO)C=C[C@H](n2cc(C)c(=O)[nH]c2=O)O1` [compound 18]: the half-inhibitory concentration (IC50) was 12500 nM.

On to `C#C[C@@]1(CO)C=C[C@H](n2cnc3c(N)nc(F)nc32)O1` [compound 19], for which the IC50 is > 12500 nM.

Regarding `C=C[C@]1(CO)O[C@@H](n2cnc3c(N)nc(F)nc32)C[C@@H]1O` [compound 20, (2R,3S,5R)-5-(6-amino-2-fluoro-9H-purin-9-yl)-2-(hydroxymethyl)-2-vinyltetrahydrofuran-3-ol], the concentration for half-maximal inhibition (IC50) worked out at 11 nM.

With `C#C[C@]1(CO)O[C@@H](n2cnc3c(N)ncnc32)C[C@@H]1O` [compound 23], the IC50 was > 50000 nM.

For `C=C[C@]1(CO)O[C@@H](n2ccc(N)nc2=O)C[C@@H]1O` [compound 24], the 50% inhibitory concentration (IC50) worked out at 10 nM.

For `CC[C@]1(CO)O[C@@H](n2cc(C)c(=O)[nH]c2=O)C[C@@H]1O` [compound 26], the concentration for half-maximal inhibition (IC50) turned out to be 2050 nM.
